From US20100256243A1, “Dosing Regimen for the Treatment of Alzheimer's Disease With Sulfonyl Fluorides” (priority 2009, published 2010)
Where a chain is given by its changes, count along the chain named. Several values for one entry are separate records, joined by “and”; a condition that tells them apart may be missing. Identical values can stand only once. Entries after “also recorded” stand apart in the source; their conditions may differ.

Columns and labels:
rats [1] = assay: Daily dosing with 1.0 mg/kg MSF/peanut oil in rats (clinical signs of distress and/or death); format: in vivo
rats [2] = assay: Alternating day dosing with 2.0 mg/kg MSF/peanut oil in rats (death); format: in vivo; details: 2 mg/kg every other day; for Number Alive/Numbered Treated / lethality: oral
Experimental: To confirm the “pulsing” theory for MSF administration, the inventor continued the experiment described above and extended MSF treatment to double the total lethal dose observed in Example 1 (from 4 mg/kg to 8 mg/kg). Rats in were treated at 2 mg/kg/every other day for 2 more round (total of 8 mg/kg in 8 days).

animals = assay: Acute oral toxicity (LD50) of MSF in animals; format: in vivo, rats
Experimental: The acute oral LD50, as indicated by the data, was determined to be greater than 3 mg/kg but less than 4 mg/kg.

[3] = target: T1, brain acetylcholinesterase (Rattus norvegicus, UniProt P37136); details: cited from earlier work
T1 construct: host or cells: rodent brain, dosed in vivo
T1 sequence (P37136 32-614): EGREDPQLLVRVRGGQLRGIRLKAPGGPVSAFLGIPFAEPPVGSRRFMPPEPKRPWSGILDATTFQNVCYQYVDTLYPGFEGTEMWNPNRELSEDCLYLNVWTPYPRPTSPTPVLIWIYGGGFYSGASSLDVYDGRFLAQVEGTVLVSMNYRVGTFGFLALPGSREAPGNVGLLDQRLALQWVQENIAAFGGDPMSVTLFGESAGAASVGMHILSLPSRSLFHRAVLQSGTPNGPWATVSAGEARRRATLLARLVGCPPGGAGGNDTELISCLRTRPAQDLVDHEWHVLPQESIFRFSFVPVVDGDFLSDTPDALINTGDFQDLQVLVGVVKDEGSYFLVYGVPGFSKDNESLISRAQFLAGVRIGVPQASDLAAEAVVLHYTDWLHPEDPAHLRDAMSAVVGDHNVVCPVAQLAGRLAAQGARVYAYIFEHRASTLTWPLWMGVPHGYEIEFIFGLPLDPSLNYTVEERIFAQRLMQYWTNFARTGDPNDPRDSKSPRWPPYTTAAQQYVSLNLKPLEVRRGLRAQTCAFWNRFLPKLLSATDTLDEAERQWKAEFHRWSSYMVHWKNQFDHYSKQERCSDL

[4] = tested on: brain acetylcholinesterase; details: cited from earlier work
brain AChE [5] = target: T2, brain AChE (Mus musculus, UniProt P21836); details: ex vivo, mice, without toxicity (Kobayashi et al., 1999); cited from earlier work
T2 construct: host or cells: mouse brain, ex vivo
T2 sequence (P21836 32-614): T1 sequence (P37136 32-614) with I59V, T109A, S128A, T144A, S271A, D313E, A392T, V467T, Q478K, R499Q

brain AChE [6] = target: T3, brain AChE (Rattus norvegicus, UniProt P37136); details: ex vivo, rats, without toxicity (Moss et al., 1985); cited from earlier work
T3 construct: host or cells: rat brain, ex vivo
T3 sequence (P37136 32-614): T1 sequence (P37136 32-614)

[7] = target: T4, acetylcholinesterase in the brain (Rattus norvegicus, UniProt P37136); details: cerebrally ischemic animals (U.S. Patent Publication 2003/0087959); cited from earlier work
T4 construct: host or cells: brain of cerebrally ischemic animals, dosed in vivo
T4 sequence (P37136 32-614): T1 sequence (P37136 32-614)

[8] = tested on: cerebrally ischemic animals; details: compared to untreated controls (U.S. Patent Publication 2003/0087959); cited from earlier work
brain AChE [9] = details: oral MSF 0.5 mg/kg daily, after 5 days of administration; cited from earlier work
[10] = tested on: enzyme in the periphery (cholinesterase); details: rodents, administered daily at low doses (Moss et al., 1988); cited from earlier work
human cortex AChE = target: T5, human cortex AChE (Homo sapiens, UniProt P22303); details: in vitro (Pacheco et al., 1995); cited from earlier work
T5 construct: host or cells: human cortex, in vitro

rats [11] = details: daily doses (Palacios-Esquivel et al., 1993); cited from earlier work
aged rats = details: daily doses (Malin et al., 1993); cited from earlier work
rats [12] = details: daily doses (Borlongan et al., 2005); cited from earlier work
[13] = tested on: patients with senile dementia of Alzheimer type; details: patients with senile dementia of Alzheimer type (U.S. Pat. No. 5,798,392); cited from earlier work
[14] = tested on: septal choline acetyltransferase; details: cerebrally ischemic animals, versus vehicle-treated animals (U.S. Patent Publication 2003/0087959); cited from earlier work
[15] = relatively small doses over a long period of time (Moss et al., 1988; 1985)

T5 sequence (P22303 32-614): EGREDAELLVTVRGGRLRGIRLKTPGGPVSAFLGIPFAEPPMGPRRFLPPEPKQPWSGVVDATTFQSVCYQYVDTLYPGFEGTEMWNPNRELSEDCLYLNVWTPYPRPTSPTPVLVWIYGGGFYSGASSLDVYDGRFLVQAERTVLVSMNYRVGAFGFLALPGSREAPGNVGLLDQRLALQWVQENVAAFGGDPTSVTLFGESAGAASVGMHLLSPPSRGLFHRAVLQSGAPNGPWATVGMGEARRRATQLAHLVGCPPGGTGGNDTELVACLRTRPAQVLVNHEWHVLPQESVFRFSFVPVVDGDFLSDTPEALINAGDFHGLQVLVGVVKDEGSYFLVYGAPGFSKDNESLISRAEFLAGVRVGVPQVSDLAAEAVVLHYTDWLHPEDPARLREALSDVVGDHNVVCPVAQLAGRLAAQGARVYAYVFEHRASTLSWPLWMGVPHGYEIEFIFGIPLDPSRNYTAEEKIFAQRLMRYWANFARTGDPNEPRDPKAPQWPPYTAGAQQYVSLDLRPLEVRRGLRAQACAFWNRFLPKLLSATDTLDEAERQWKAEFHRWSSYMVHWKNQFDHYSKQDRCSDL

Structure (SMILES): CS(=O)(=O)F [MSF, methanesulfonyl fluoride]
- clinical signs of distress and/or death (rats [1]; oral gavage, 1.0 mg/kg daily, MSF/peanut oil 1.0 mg/ml, 1 mg/kg): high toxicity and animal deaths
- Number Alive/Numbered Treated (rats [1]; oral, 1 mg/kg daily, 4 days): 0/7 (4 males + 3 female)
- animals survived (rats [2]; total of 8 mg/kg in 8 days): 83.3%
- Number Alive/Numbered Treated (rats [2]; 4 days (total 4 mg/kg)): 6/6 (3 males + 3 female)
- lethality (rats [2]; 4 days (total 4 mg/kg)): no lethal event; also recorded: By Day 4, all rats were alive and it was decided to continue the treatment
- Number Alive/Numbered Treated (rats [2]; 8 days (total 8 mg/kg)): 5/6 (3 males + 3 female) and 5/6
- lethality (rats [2]; 8 days (total 8 mg/kg), follow-up over two weeks): 1 animal was found dead
- Number Dead/Number Treated, Combination (animals; 1 mg/kg (0.4 mg/mL)): 0/10
- Number Dead/Number Treated, Females (animals; 1 mg/kg (0.4 mg/mL)): 0/5
- Number Dead/Number Treated, Males (animals; 1 mg/kg (0.4 mg/mL)): 0/5
- Number Dead/Number Treated, Combination (animals; 2 mg/kg (0.8 mg/mL)): 0/10
- Number Dead/Number Treated, Females (animals; 2 mg/kg (0.8 mg/mL)): 0/5
- Number Dead/Number Treated, Males (animals; 2 mg/kg (0.8 mg/mL)): 0/5
- Number Dead/Number Treated, Combination (animals; 3 mg/kg (1.2 mg/mL)): 1/10
- Number Dead/Number Treated, Females (animals; 3 mg/kg (1.2 mg/mL)): 1/5
- Number Dead/Number Treated, Males (animals; 3 mg/kg (1.2 mg/mL)): 0/5
- Number Dead/Number Treated, Combination (animals; 4 mg/kg (1.6 mg/mL)): 10/10
- Number Dead/Number Treated, Females (animals; 4 mg/kg (1.6 mg/mL)): 5/5
- Number Dead/Number Treated, Males (animals; 4 mg/kg (1.6 mg/mL)): 5/5
- inhibition of rodent brain acetylcholinesterase [3, 15]: 80-90%
- inhibition of brain cholinesterase (average) ([3]; rodents, administered daily at low doses (Moss et al., 1988)): 90%
- inhibition of brain AChE ([4]; ex vivo, monkey cortex, without toxicity (Moss et al., 1988)): up to 80%
- inhibition of monkey brain acetylcholinesterase [4, 15]: 80-90%
- inhibition of brain AChE (brain AChE [5]): up to 80%
- inhibition of brain AChE (brain AChE [6]): up to 80%
- inhibition of acetylcholinesterase in the brain [7]: about 90%
- cognitive performance [8]: improved cognitive performance
- inhibition in the brain (brain AChE [9]): 90%
- inhibition of enzyme in the periphery [10]: less than 30%
- selectivity for inhibition of human cortex AChE compared to butyrylcholinesterase (human cortex AChE): highly selective
- reversing scopolamine-induced amnesia (rats [11]): highly effective
- reversing normal age-related memory impairment (aged rats): highly effective
- reversing ischemia-induced cognitive deficits (rats [12]): highly effective
- cognitive performance in patients [13]: improvement in cognitive performance
- septal choline acetyltransferase immunoreactivity [14]: more intense septal choline acetyltransferase immunoreactivity
